Test results: patent US20250353873A1, “COMPOUNDS AND METHODS FOR MODULATING APOE EXPRESSION” (Ionis Pharmaceuticals, Inc., priority 2024, published 2025)
Strand notation (5' to 3'): a small letter for the sugar, then the base; units joined by * are phosphorothioate-linked, units joined directly phosphodiester-linked; [ ] holds rarer units or linkages, { } end groups; capitals alone tell only the bases. [ms] = mesyl phosphoramidate linkage; e = 2'-O-(2-methoxyethyl) (MOE); [5mC] = 5-methylcytosine; d = 2'-deoxy (DNA)

System: human APOE RNA
Assay: Activity in APOE C57BL/6NTac-Apoeem7250 knock-in mice, single ICV bolus, 16 weeks (Example 12)
Type: in vivo
Settings: single ICV bolus 300 μg, 16 weeks post treatment, normalized to mouse Ppia
Method: Modified oligonucleotides described above were tested in the APOE C57BL/6NTac-Apoeem7250 knock-in mouse model described above.
APOE C57BL/6NTac-Apoeem7250 knock-in mice were divided into groups of 3-4 mice each. Each mouse received a single intracerebroventricular (ICV) bolus of 300 μg of modified oligonucleotide. A group of 4 mice received a single ICV bolus with PBS as a negative control.
Sixteen weeks post treatment, mice were sacrificed and RNA was extracted from cortical brain tissue and spinal cord for quantitative real-time RT-PCR analysis of RNA expression of APOE using primer probe set RTS3073 (described herein above). APOE RNA levels were normalized to mouse Ppia. Mouse Ppia was amplified using primer probe set m_cyclo24 (described herein above). Results are presented as percent human APOE RNA relative to the amount of human APOE RNA in PBS treated animals, (% control). Each experiment is identified in separate tables below.

Row | Substance | APOE RNA (% control) Cortex [% control] | APOE RNA (% control) Spinal Cord [% control]
1 | 1693058: 5-10-5 MOE gapmer TTGGTGAATCTTTATTAAAC, linkages sssoszzzssssszsosss (antisense eT*eT*eG*eGeT*dG[ms]dA[ms]dA[ms]dT*d[5mC]*dT*dT*dT*dA[ms]dT*eTeA*eA*eA*e[5mC]) [compound 1693058] | 113 | 80
2 | 1693056: 5-10-5 MOE gapmer TTGGTGAATCTTTATTAAAC, linkages ssosszzzssssszsosss (antisense eT*eT*eGeG*eT*dG[ms]dA[ms]dA[ms]dT*d[5mC]*dT*dT*dT*dA[ms]dT*eTeA*eA*eA*e[5mC]) [compound 1693056] | 105 | 118
3 | 1693057: 5-10-5 MOE gapmer TTGGTGAATCTTTATTAAAC, linkages ssssszzzssssszsosss (antisense eT*eT*eG*eG*eT*dG[ms]dA[ms]dA[ms]dT*d[5mC]*dT*dT*dT*dA[ms]dT*eTeA*eA*eA*e[5mC]) [compound 1693057] | 125 | 101
4 | 1693068: 5-10-5 MOE gapmer ACTTGGTGAATCTTTATTAA, linkages sssossszzzszsssssss (antisense eA*e[5mC]*eT*eTeG*dG*dT*dG[ms]dA[ms]dA[ms]dT*d[5mC][ms]dT*dT*dT*eA*eT*eT*eA*eA) [compound 1693068] | 86 | 72
5 | 1693070: 5-10-5 MOE gapmer ACTTGGTGAATCTTTATTAA, linkages ssssssszzzszsssosss (antisense eA*e[5mC]*eT*eT*eG*dG*dT*dG[ms]dA[ms]dA[ms]dT*d[5mC][ms]dT*dT*dT*eAeT*eT*eA*eA) [compound 1693070] | 86 | 76
6 | 1693104: 6-10-4 MOE gapmer CTTGGTGAATCTTTATTAAA, linkages ssossszzzssssszssss (e[5mC]*eT*eTeG*eG*eT*dG[ms]dA[ms]dA[ms]dT*d[5mC]*dT*dT*dT*dA[ms]dT*eT*eA*eA*eA) [compound 1693104] | 129 | 52
7 | 1693139: 6-10-4 MOE gapmer ACTTGGTGAATCTTTATTAA, linkages ssssssszzzssssszsss (eA*e[5mC]*eT*eT*eG*eG*dT*dG[ms]dA[ms]dA[ms]dT*d[5mC]*dT*dT*dT*dA[ms]eT*eT*eA*eA) [compound 1693139] | 92 | 97
8 | 1693140: 6-10-4 MOE gapmer ACTTGGTGAATCTTTATTAA, linkages sssssoszzzssssszoss (eA*e[5mC]*eT*eT*eG*eGdT*dG[ms]dA[ms]dA[ms]dT*d[5mC]*dT*dT*dT*dA[ms]eTeT*eA*eA) [compound 1693140] | 109 | 68
9 | 1693106: 6-10-4 MOE gapmer CTTGGTGAATCTTTATTAAA, linkages sssssszzzssssszssss (e[5mC]*eT*eT*eG*eG*eT*dG[ms]dA[ms]dA[ms]dT*d[5mC]*dT*dT*dT*dA[ms]dT*eT*eA*eA*eA) [compound 1693106] | 78 | 71
10 | 1693046: 5-10-5 MOE gapmer CTTGGTGAATCTTTATTAAA, linkages ssssszzzzzsssssssss (antisense e[5mC]*eT*eT*eG*eG*dT[ms]dG[ms]dA[ms]dA[ms]dT[ms]d[5mC]*dT*dT*dT*dA*eT*eT*eA*eA*eA) [compound 1693046] | 106 | 80
11 | 1693055: 5-10-5 MOE gapmer TTGGTGAATCTTTATTAAAC, linkages sososzzzsssssssosss (antisense eT*eTeG*eGeT*dG[ms]dA[ms]dA[ms]dT*d[5mC]*dT*dT*dT*dA*dT*eTeA*eA*eA*e[5mC]) [compound 1693055] | 95 | 67
12 | 1693071: 5-10-5 MOE gapmer ACTTGGTGAATCTTTATTAA, linkages ssssssszzzzzsssosss (antisense eA*e[5mC]*eT*eT*eG*dG*dT*dG[ms]dA[ms]dA[ms]dT[ms]d[5mC][ms]dT*dT*dT*eAeT*eT*eA*eA) [compound 1693071] | 68 | 66
13 | 1693081: 6-10-4 MOE gapmer TTGGTGAATCTTTATTAAAC, linkages sssssozzszssszssoss (eT*eT*eG*eG*eT*eGdA[ms]dA[ms]dT*d[5mC][ms]dT*dT*dT*dA[ms]dT*dT*eAeA*eA*e[5mC]) [compound 1693081] | 91 | 100
14 | 1693067: 5-10-5 MOE gapmer ACTTGGTGAATCTTTATTAA, linkages ssosssszzzszsssssss (antisense eA*e[5mC]*eTeT*eG*dG*dT*dG[ms]dA[ms]dA[ms]dT*d[5mC][ms]dT*dT*dT*eA*eT*eT*eA*eA) [compound 1693067] | 97 | 162
15 | 1693078: 6-10-4 MOE gapmer TTGGTGAATCTTTATTAAAC, linkages ssossszzszssszssoss (eT*eT*eGeG*eT*eG*dA[ms]dA[ms]dT*d[5mC][ms]dT*dT*dT*dA[ms]dT*dT*eAeA*eA*e[5mC]) [compound 1693078] | 98 | 99
16 | 1693074: 5-10-5 MOE gapmer ACTTGGTGAATCTTTATTAA, linkages ssosssszzzzzsssssss (eA*e[5mC]*eTeT*eG*dG*dT*dG[ms]dA[ms]dA[ms]dT[ms]d[5mC][ms]dT*dT*dT*eA*eT*eT*eA*eA) [compound 1693074] | 84 | 71
17 | 1693059: 5-10-5 MOE gapmer TTGGTGAATCTTTATTAAAC, linkages ssssszzzssssszsssss (antisense eT*eT*eG*eG*eT*dG[ms]dA[ms]dA[ms]dT*d[5mC]*dT*dT*dT*dA[ms]dT*eT*eA*eA*eA*e[5mC]) [compound 1693059] | 89 | 98
18 | 1693053: 5-10-5 MOE gapmer TTGGTGAATCTTTATTAAAC, linkages ssssszzzsssssssosss (antisense eT*eT*eG*eG*eT*dG[ms]dA[ms]dA[ms]dT*d[5mC]*dT*dT*dT*dA*dT*eTeA*eA*eA*e[5mC]) [compound 1693053] | 99 | 99
